Measured values: the NIST ThermoML archive (doi:10.1016/j.fluid.2016.01.011)
± gives the expanded uncertainty stated by the source.

Assays:
[1] = Molar enthalpy of transition or fusion; conditions: Crystal; DSC
[2] = Crystal; DTA

Molar enthalpy of transition or fusion [1]	Normal melting temperature [2]	SMILES
10.7 ± 0.406 kcal/mol	54.53 ± 0.84 °C	CCCCCCCCCCCCCC(=O)O [tetradecanoic acid]
8.15 ± 0.215 kcal/mol	-4.91 ± 0.58 °C	CCCCC/C=C\C/C=C\CCCCCCCC(=O)O [(Z,Z)-9,12-octadecadienoic acid]
15.4 ± 0.55 kcal/mol	70.83 ± 0.61 °C	CCCCCCCCCCCCCCCCCC(=O)O [octadecanoic acid]
